Molecules are shown by their SMILES. Counter-ions that a name gives are not always drawn.

In data set [1] the test system is Compound 48/80-induced scratching. Kind of data set: mouse scratch model: antagonism of Compound 48/80-induced scratching (anti-pruritic activity). It is filed as in vivo, male Swiss albino mice. The following applies: sc, 0.5 h, Compound 48/80 challenge, 30 min observation. The method, then:
Testing was performed in a mouse scratch model under blind conditions.
Groups of 8-10 male Swiss albino mice (Hilltop Lab Animals, Inc., Scottsdale, Pa.), weighing […], were used in the testing. They were housed under controlled temperature of 23°-25° C. Food and water were freely available. Before the experiments, the mice were weighted, put into individual boxes and allowed to acclimate for 30 min.
Vehicle used to dissolve the test compounds: 20% w/w cremafor EL.
The compounds to be tested for anti-pruritic activity were dissolved in the vehicle of 20% w/w cremafor EL.
100 μl of the vehicle (3-5 doses, n=8-10) was injected s.c. into the back of the neck of mice 20 min. before challenging them with 100 μl of Compound 48/80 (2 mg/ml; […]) injected s.c. into the back of the neck.
To each mouse of a group of 8-10 mice previously subjected to the standard challenge various doses of the compounds, to be tested for anti-pruritic activity, were administered s.c. into the back of the neck.
For each group of 8-10 mice, the mean values for scratching were no to relative % antagonism of scratching and then plotted vs. dose of test compounds. Interval estimates of mean A50 were determined by nonlinear regression analysis (Kaleida Graph) and mean % inhibition of scratching was calculated.

The conditions of data set [2]: in vivo, iv; cited from earlier work.
For data set [3] the following is noted: in vivo; hydrochloride; cited from earlier work.

For the compound `O=C(O)C1(c2ccccc2)CCN(CCC(c2ccccc2)(c2ccccc2)c2ccccn2)CC1` [(1), 1-[3,3-diphenyl-3-(2-pyridyl)propyl]-4-phenyl-4-piperidinecarboxylic acid hydrochloride], in data set [1], the inhibition at 2.5 mg/kg is 32% and 5 mg/kg produced 65% inhibition. Also, the inhibition at 10 mg/kg in data set [1] (10.0 mg/kg) turned out to be 83%.

In data set [1] (1.0 mg/kg), `OC1(Cc2ccc(Cl)cc2)CCN(CCC(c2ccccc2)(c2ccccc2)c2ccccc2)CC1` [(2), 1-(3,3,3-triphenylpropyl)-4-hydroxy-4-p-chlorobenzylpiperidine] showed an inhibition at 1 mg/kg of 35%. In data set [1], testing at 2.5 mg/kg gave an inhibition of 68% and at 5 mg/kg the inhibition was 94%.

Consider `CN1CC[C@]23c4c5ccc(O)c4O[C@H]2[C@@H](O)C=C[C@H]3[C@H]1C5` [morphine], for which the “general itching, incidence” value in data set [2] is given as “about 1 % of patients”.

`CN(C)C(=O)C(CCN1CCC(O)(c2ccc(Cl)cc2)CC1)(c1ccccc1)c1ccccc1` [Loperamide HCl, 4-(p-chlorophenyl)-4-hydroxy-N-N-dimethyl-α,α-diphenyl-1-piperidinebutyramide hydrochloride]: the CNS effects entry in data set [3] is recorded as “completely free of the undesirable CNS effects”.
